In US11103526B2, “Methods for treatment using small molecule potassium-sparing diuretics and natriuretics” (University of Pittsburgh—Of the Commonwealth System of …, priority 2016, dated 2021):

How the values were obtained:
[1] = tested on: Sugen 5416+hypoxia-induced PH; assay: Sugen 5416+hypoxia-induced angioproliferative pulmonary hypertension; format: in vivo, female Sprague Dawley rats; settings: 30 mg/kg/day in drinking water
Text: A total of 36 female Sprague Dawley rats were used to determine whether administration of the PNPase inhibitor 8-aminoguanosine attenuates development of angioproliferative PH in animals with Sugene5416+hypoxia-induced PH. The animals were randomly assigned to receive subcutaneous injection of vehicle [(control group; n=8; 0.5% (w/v) carboxymethylcellulose sodium, 0.9% (w/v) sodium chloride, 0.4% (v/v) polysorbate 80, and 0.9% (v/v) benzyl alcohol in deionized water] or subcutaneous injection of SU5416 20 mg/kg (n=16; SU+Hx group). A subset of the SU5416-treated animals received 8-aminoguanosine (30 mg/kg/day in drinking water (n=12; 8-amino-guanosine group). On day 0, all SU5416-treated animals (SU+Hx and 8-aminoguanosine groups) were exposed to chronic hypoxia for 3 weeks. The animals were placed into normobaric plexiglas chambers (BioSpherix, Redfield, N.J., USA). The chambers were continuously flushed with nitrogen to maintain 10% oxygen and low CO2 concentrations (<0.5%) with the O2 and CO2 concentrations continuously monitored (PROOX110, BioSpherix oxygen controller and LB-2 CO2 analyzer, Sensormedics). At day 21, the animals were returned to a normoxic environment. Three weeks later (day 42), the animals were anesthetized and instrumented for RVPSP measurements. A PE-240 polyethylene catheter was inserted into the trachea to facilitate breathing, and the SPR-513 catheter (Millar Instruments) was inserted into right jugular vein and advanced into RV for RVPSP measurements. After 20-30-minutes of stabilization, RVPSP was recorded over 20 minutes. The animals were euthanized by anesthetic overdose, and the heart and lungs were collected for morphometric analyses.

[2] = tested on: Dahl salt-sensitive rats (Dahl SS); assay: Long-term MABP in Dahl salt-sensitive rats; format: in vivo; settings: 10 mg/kg/day in drinking water; 8% NaCl diet
Text: This example describes the long-term effects of 8-aminoguanine (FIG. 11A) and 8-aminoguanosine (FIG. 11B) on mean arterial blood pressure (MABP) in Dahl salt-sensitive rats (Dahl SS). Dahl SS are a well-established model of salt-sensitive hypertension. All animals were instrumented for long-term measurement of MABP by radiotelemetry as previously described (Jackson E K et al., Hypertension, 65:238-249, 2015). Group 1 Dahl SS received only normal drinking water, whereas Group 2 received normal drinking water for 7 days and then were provided drinking water containing either 8-aminoguanine or 8-aminoguanosine (10 mg/kg/day) for the remainder of the study. The experiment was divided into two phases (indicated by the boxes). During phase 1, all rats received a low-salt (0.3% NaCl) diet. During phase 2, all animals received a high-salt (8% NaCl) diet. The study was continued until all animals expired, so the sample size decreases with time. The blood pressures of the 8-aminoguanine- and 8-aminoguanosine-treated rats were obtainable for a longer period of time because they survived longer. […] Therefore, any stroke and survival benefit for 8-aminoguanosine cannot be attributed to changes in MABP. Why 8-aminoguaine, but not 8-aminoguanosine, lowers MABP in Dahl SS on a high-salt diet is currently unknown, but may be due to different pharmacokinetics of the compounds in this rat strain.

[3] = tested on: RBCs from SCD patients (HbSS); assay: Hypoxia-induced sickling of RBCs from SCD patients; format: cell-based, human
Method: In addition to causing PH in SCD patients and HIV-infected patients, the contribution of PNPase to RBC sickling in SCD patients was assessed. Fresh RBCs were obtained from two adult SCD patients (HbSS); the RBCs were diluted in F-10 HAM buffer to a final hematocrit of 4%. Next, glucose was added for a final concentration of 5.5 mmol/L, and the samples were incubated at room air/temperature in 12-well plates. The RBCs were then treated with either vehicle, 8-aminoguanosine (2 μmol/L), inosine (2 μmol/L), or an 8-aminoguanosine and inosine combination. After 1.5 hours, the RBCs were placed in a hypoxic glove box and maintained under hypoxia (5% 02) for 3 hours, while undergoing mild agitation. At the end of incubation, to prevent reoxygenation-derived morphological changes, the RBCs were fixed under hypoxic conditions in the hypoxic glove box. The samples were assayed for percent sickling.

[4] = Protocol 2: renal microdialysate and urine levels after intravenous bolus (Example 12); settings: after 33.5 μmoles/kg intravenous bolus
Method: Rats were prepared in a similar fashion to that described in Protocol 1, but with modifications. Specifically, microdialysis probes were inserted into the cortex and medulla of the right kidney and were perfused at 2 μl/min with 0.9% saline. The microdialysis probes used in this protocol were from Bioanalytical Systems (West Lafayette, Ind.; CMA/20 microdialysis probe 4 mm; outer diameter of 0.5 mm; 20,000 dalton membrane cut-off). After initiating the probe perfusions, the infusion rate of 0.9% saline via the jugular vein was reduced to 25 μl/min to avoid volume overload. The rats then stabilized for two hours for the kidney to recover from the trauma induced by the probe insertions.
Next, microdialysate from the renal cortex and medulla as well as urine were collected for 30 minutes, and MABP and HR were time averaged during this first (basal) period. Rats were then randomized to receive 8-aminoguanosine, 8-aminoguanine, or vehicle using the dose and manner described for Protocol 1. Ten minutes after the treatments, microdialysate from the renal cortex and medulla as well as urine were again collected for 30 minutes, and MABP and HR were time averaged during this treatment period. After 15 minutes, this procedure was repeated. 8-Aminoguanosine and 8-aminoguanine were measured in urine and microdialysate using ultra-performance liquid chromatography-tandem mass spectrometry (LC-MS/MS) as described below.
Assay for 8-Aminoguanosine and 8-Aminoguanine. The purines in the urine and microdialysate were measured by LC-MS/MS using a method similar to a previously described method (Jackson et al., J Biol Chem 284:33097-33106, 2009), but with modifications. Purines were separated using reversed-phase ultra-performance liquid chromatography (Waters UPLC BEH C18 column, 1.7 μm beads; 2.1×150 mm; Milford, Mass.) and quantified by selected reaction monitoring using a triple quadrupole mass spectrometer (TSQ Quantum-Ultra; ThermoFisher Scientific, San Jose, Calif.) with a heated electrospray ionization source. The mobile phase included a linear gradient flow rate (300 uL/min) of 1% acetic acid in water (pH, 3; mobile phase A) as well as 100% methanol (mobile phase B) and was delivered with a Waters Acquity ultra-performance liquid chromatographic system. […]
Microdialysis probes were inserted into the renal cortex and medulla of anesthetized rats; the rats stabilized for 2 hours and were then administered an intravenous bolus of vehicle (control group), 8-aminoguanosine (33.5 μmoles/kg), or 8-aminoguanine (33.5 μmoles/kg). The levels of these compounds were then measured in the renal cortex and medulla as well as in the urine using LC-MS/MS.

| Compound | Fulton index ([1]; day 42) | RV contractility ([1]; day 42) | RV end diastolic pressure (RV EDP) ([1]; day 42) | right ventricular peak systolic pressure (RVPSP) ([1]; day 42) | grade 6 necrotizing arteritis lesions ([1]; histopathology) | occlusive vascular lesions ([1]; histopathology) | plexiform vascular lesions ([1]; histopathology) | MABP in Dahl SS on a high-salt diet [2] | hypoxia-induced sickling of RBCs ([3]; 2 μmol/L, 1.5 hours pre-incubation, then hypoxia for 3 hours) | effect on the inhibitory effects of inosine on hypoxia-induced sickling ([3]; 8-aminoguanosine (2 μmol/L) combined with inosine (2 μmol/L)) | interstitial levels of 8-aminoguanine in the renal cortex ([4]; microdialysate) | interstitial levels of 8-aminoguanine in the renal medulla ([4]; microdialysate) | urinary levels of 8-aminoguanine ([4]; urine) | urinary levels of 8-aminoguanosine ([4]; urine) |
| --- | --- | --- | --- | --- | --- | --- | --- | --- | --- | --- | --- | --- | --- | --- |
| Nc1nc2c(nc(N)n2[C@@H]2O[C@H](CO)[C@@H](O)[C@H]2O)c(=O)[nH]1 [8-aminoguanosine, 8-Aminoguanosine] | decreased | improved | decreased | significantly reduced | prevented sporadic occurrence | reduced the number | reduced the number | did not alter MABP | significantly reduced | potentiated |  |  |  |  |
| Nc1nc2[nH]c(N)nc2c(=O)[nH]1 [8-aminoguanine, 8-Aminoguanine] |  |  |  |  |  |  |  | decreases MABP |  |  | immediate, sustained, similar, and large increases | immediate, sustained, similar, and large increases | immediate, sustained, similar, and large increases | did not affect |
